Assay results taken from ChEMBL document CHEMBL1649524, “Resistance selection studies comparing the activity of razupenem (PTZ601) to vancomycin and linezolid against eight methicillin-resistant and two methicillin-susceptible Staphylococcus aureus strains” (2009).
≈ marks a conversion by molar mass, not a printed value.

How the values were obtained:
Format in all cases: functional
[1] = tested on: Staphylococcus aureus; assay: Antimicrobial activity against methicillin-resistant Staphylococcus aureus 547 measured on day 25 by macrodilution method; settings: Staphylococcus aureus, 547, 600 h
[2] = tested on: Staphylococcus aureus; assay: Antimicrobial activity against vancomycin-intermediate Staphylococcus aureus 1287 measured on day 20 by macrodilution method; settings: Staphylococcus aureus, 1287, 480 h
[3] = tested on: Staphylococcus aureus; assay: Antimicrobial activity against vancomycin-intermediate Staphylococcus aureus 1287 measured on day 30 by macrodilution method
[4] = tested on: Staphylococcus aureus; assay: Antimicrobial activity against heterogeneous vancomycin-intermediate Staphylococcus aureus 873 after 50 passages by macrodilution method
[5] = tested on: Staphylococcus aureus; assay: Antimicrobial activity against vancomycin-resistant Staphylococcus aureus 510 after 50 passages by macrodilution method
[6] = tested on: Staphylococcus aureus; assay: Antimicrobial activity against methicillin-resistant Staphylococcus aureus 525 measured on day 45 by macrodilution method
[7] = tested on: Staphylococcus aureus; assay: Antimicrobial activity against vancomycin-intermediate Staphylococcus aureus 1287 measured on day 5 by macrodilution method; settings: Staphylococcus aureus, 1287, 120 h
[8] = tested on: Staphylococcus aureus; assay: Antimicrobial activity against methicillin-susceptible Staphylococcus aureus 543 after 15 passages by macrodilution method
[9] = tested on: Staphylococcus aureus; assay: Antimicrobial activity against methicillin-resistant Staphylococcus aureus 525 measured on day 20 by macrodilution method; settings: Staphylococcus aureus, 525, 480 h
[10] = tested on: Staphylococcus aureus; assay: Antimicrobial activity against heterogeneous vancomycin-intermediate Staphylococcus aureus 168 measured on day 20 by macrodilution method; settings: Staphylococcus aureus, 168, 480 h
[11] = tested on: Staphylococcus aureus; assay: Antimicrobial activity against heterogeneous vancomycin-intermediate Staphylococcus aureus 168 measured on day 25 by macrodilution method; settings: Staphylococcus aureus, 168, 600 h
[12] = tested on: Staphylococcus aureus; assay: Antimicrobial activity against vancomycin-intermediate Staphylococcus aureus 1287 measured on day 10 by macrodilution method; settings: Staphylococcus aureus, 1287, 240 h
[13] = tested on: Staphylococcus aureus; assay: Antimicrobial activity against vancomycin-resistant Staphylococcus aureus 510 measured on day 25 by macrodilution method; settings: Staphylococcus aureus, 510, 600 h
[14] = tested on: Staphylococcus aureus; assay: Antimicrobial activity against heterogeneous vancomycin-intermediate Staphylococcus aureus 873 measured on day 45 by macrodilution method
[15] = tested on: Staphylococcus aureus; assay: Antimicrobial activity against heterogeneous vancomycin-intermediate Staphylococcus aureus 873 measured on day 30 by macrodilution method
[16] = tested on: Staphylococcus aureus; assay: Antimicrobial activity against methicillin-resistant Staphylococcus aureus 547 after 48 passages by macrodilution method
[17] = tested on: Staphylococcus aureus; assay: Antimicrobial activity against heterogeneous vancomycin-intermediate Staphylococcus aureus 168 after 50 passages by macrodilution method
[18] = tested on: Staphylococcus aureus; assay: Antimicrobial activity against vancomycin-intermediate Staphylococcus aureus 1287 measured on day 35 by macrodilution method
[19] = tested on: Staphylococcus aureus; assay: Antimicrobial activity against methicillin-susceptible Staphylococcus aureus 543 measured on day 10 by macrodilution method; settings: Staphylococcus aureus, 543, 240 h
[20] = tested on: Staphylococcus aureus; assay: Antimicrobial activity against vancomycin-resistant Staphylococcus aureus 509 measured on day 20 by macrodilution method; settings: Staphylococcus aureus, 509, 480 h
[21] = tested on: Staphylococcus aureus; assay: Antimicrobial activity against methicillin-resistant Staphylococcus aureus 525 measured on day 50 by macrodilution method
[22] = tested on: Staphylococcus aureus; assay: Antimicrobial activity against methicillin-susceptible Staphylococcus aureus 543 measured after 10 antibiotic-free subculturing by macrodilution method
[23] = tested on: Staphylococcus aureus; assay: Antimicrobial activity against methicillin-resistant Staphylococcus aureus 547 measured on day 45 by macrodilution method
[24] = tested on: Staphylococcus aureus; assay: Antimicrobial activity against methicillin-susceptible Staphylococcus aureus 543 measured on day 15 by macrodilution method; settings: Staphylococcus aureus, 543, 360 h
[25] = tested on: Staphylococcus aureus; assay: Antimicrobial activity against vancomycin-intermediate Staphylococcus aureus 1287 measured on day 15 by macrodilution method; settings: Staphylococcus aureus, 1287, 360 h
[26] = tested on: Staphylococcus aureus; assay: Antimicrobial activity against heterogeneous vancomycin-intermediate Staphylococcus aureus 168 measured on day 35 by macrodilution method
[27] = tested on: Staphylococcus aureus; assay: Antimicrobial activity against heterogeneous vancomycin-intermediate Staphylococcus aureus 168 measured on day 40 by macrodilution method
[28] = tested on: Staphylococcus aureus; assay: Antimicrobial activity against heterogeneous vancomycin-intermediate Staphylococcus aureus 168 measured on day 10 by macrodilution method; settings: Staphylococcus aureus, 168, 240 h
[29] = tested on: Staphylococcus aureus; assay: Antimicrobial activity against methicillin-resistant Staphylococcus aureus 547 measured on day 30 by macrodilution method
[30] = tested on: Staphylococcus aureus; assay: Antimicrobial activity against heterogeneous vancomycin-intermediate Staphylococcus aureus 873 measured on day 50 by macrodilution method
[31] = tested on: Staphylococcus aureus; assay: Antimicrobial activity against heterogeneous vancomycin-intermediate Staphylococcus aureus 873 measured on day 40 by macrodilution method
[32] = tested on: Staphylococcus aureus; assay: Antimicrobial activity against methicillin-susceptible Staphylococcus aureus 540 measured on day 35 by macrodilution method
[33] = tested on: Staphylococcus aureus; assay: Antimicrobial activity against vancomycin-resistant Staphylococcus aureus 510 measured on day 30 by macrodilution method
[34] = tested on: Staphylococcus aureus; assay: Antimicrobial activity against methicillin-resistant Staphylococcus aureus 547 measured on day 20 by macrodilution method; settings: Staphylococcus aureus, 547, 480 h
[35] = tested on: Staphylococcus aureus; assay: Antimicrobial activity against heterogeneous vancomycin-intermediate Staphylococcus aureus 873 measured on day 35 by macrodilution method
[36] = tested on: Staphylococcus aureus; assay: Antimicrobial activity against vancomycin-resistant Staphylococcus aureus 510 measured on day 35 by macrodilution method
[37] = tested on: Staphylococcus aureus; assay: Antimicrobial activity against methicillin-resistant Staphylococcus aureus 525 measured on day 15 by macrodilution method; settings: Staphylococcus aureus, 525, 360 h
[38] = tested on: Staphylococcus aureus; assay: Antimicrobial activity against methicillin-resistant Staphylococcus aureus 547 measured on day 40 by macrodilution method
[39] = tested on: Staphylococcus aureus; assay: Antimicrobial activity against methicillin-resistant Staphylococcus aureus 547 measured on day 15 by macrodilution method; settings: Staphylococcus aureus, 547, 360 h
[40] = tested on: Staphylococcus aureus; assay: Antimicrobial activity against vancomycin-resistant Staphylococcus aureus 509 measured on day 25 by macrodilution method; settings: Staphylococcus aureus, 509, 600 h
[41] = tested on: Staphylococcus aureus; assay: Antimicrobial activity against methicillin-resistant Staphylococcus aureus 525 measured on day 35 by macrodilution method
[42] = tested on: Staphylococcus aureus; assay: Antimicrobial activity against heterogeneous vancomycin-intermediate Staphylococcus aureus 168 measured on day 45 by macrodilution method
[43] = tested on: Staphylococcus aureus; assay: Antimicrobial activity against vancomycin-resistant Staphylococcus aureus 509 measured after 10 antibiotic-free subculturing by macrodilution method
[44] = tested on: Staphylococcus aureus; assay: Antimicrobial activity against methicillin-susceptible Staphylococcus aureus 540 measured on day 15 by macrodilution method; settings: Staphylococcus aureus, 540, 360 h
[45] = tested on: Staphylococcus aureus; assay: Antimicrobial activity against methicillin-resistant Staphylococcus aureus 547 measured on day 35 by macrodilution method
[46] = tested on: Staphylococcus aureus; assay: Antimicrobial activity against vancomycin-intermediate Staphylococcus aureus 1287 measured on day 40 by macrodilution method
[47] = tested on: Staphylococcus aureus; assay: Antimicrobial activity against methicillin-resistant Staphylococcus aureus 525 measured on day 25 by macrodilution method; settings: Staphylococcus aureus, 525, 600 h
[48] = tested on: Staphylococcus aureus; assay: Antimicrobial activity against methicillin-resistant Staphylococcus aureus 525 after 50 passages by macrodilution method
[49] = tested on: Staphylococcus aureus; assay: Antimicrobial activity against methicillin-susceptible Staphylococcus aureus 540 measured on day 20 by macrodilution method; settings: Staphylococcus aureus, 540, 480 h
[50] = tested on: Staphylococcus aureus; assay: Antimicrobial activity against methicillin-resistant Staphylococcus aureus 525 measured on day 40 by macrodilution method
[51] = tested on: Staphylococcus aureus; assay: Antimicrobial activity against vancomycin-resistant Staphylococcus aureus 509 measured on day 40 by macrodilution method
[52] = tested on: Staphylococcus aureus; assay: Antimicrobial activity against vancomycin-intermediate Staphylococcus aureus 1287 after 50 passages by macrodilution method
[53] = tested on: Staphylococcus aureus; assay: Antimicrobial activity against heterogeneous vancomycin-intermediate Staphylococcus aureus 168 measured on day 15 by macrodilution method; settings: Staphylococcus aureus, 168, 360 h
[54] = tested on: Staphylococcus aureus; assay: Antimicrobial activity against heterogeneous vancomycin-intermediate Staphylococcus aureus 168 measured on day 50 by macrodilution method
[55] = tested on: Staphylococcus aureus; assay: Antimicrobial activity against methicillin-susceptible Staphylococcus aureus 540 measured on day 30 by macrodilution method
[56] = tested on: Staphylococcus aureus; assay: Antimicrobial activity against methicillin-susceptible Staphylococcus aureus 540 measured on day 25 by macrodilution method; settings: Staphylococcus aureus, 540, 600 h
[57] = tested on: Staphylococcus aureus; assay: Antimicrobial activity against vancomycin-resistant Staphylococcus aureus 510 measured on day 50 by macrodilution method
[58] = tested on: Staphylococcus aureus; assay: Antimicrobial activity against vancomycin-resistant Staphylococcus aureus 510 measured on day 20 by macrodilution method; settings: Staphylococcus aureus, 510, 480 h
[59] = tested on: Staphylococcus aureus; assay: Antimicrobial activity against vancomycin-intermediate Staphylococcus aureus 1287 measured on day 25 by macrodilution method; settings: Staphylococcus aureus, 1287, 600 h
[60] = tested on: Staphylococcus aureus; assay: Antimicrobial activity against vancomycin-resistant Staphylococcus aureus 509 after 28 passages by macrodilution method
[61] = tested on: Staphylococcus aureus; assay: Antimicrobial activity against vancomycin-intermediate Staphylococcus aureus 1287 measured after 10 antibiotic-free subculturing by macrodilution method
[62] = tested on: Staphylococcus aureus; assay: Antimicrobial activity against vancomycin-intermediate Staphylococcus aureus 1287 measured on day 50 by macrodilution method
[63] = tested on: Staphylococcus aureus; assay: Antimicrobial activity against vancomycin-intermediate Staphylococcus aureus 1287 measured on day 45 by macrodilution method

## CC(=O)NC[C@H]1CN(c2ccc(N3CCOCC3)c(F)c2)C(=O)O1 [LINEZOLID]
[1]
  MIC: 16 µg/mL (≈ 47.4 µM)
[2]
  MIC: 8 µg/mL (≈ 23.7 µM)
[3]
  MIC: 16 µg/mL (≈ 47.4 µM)
[4]
  MIC: 8 µg/mL (≈ 23.7 µM)
[5]
  MIC: 16 µg/mL (≈ 47.4 µM)
[6]
  MIC: 16 µg/mL (≈ 47.4 µM)
[7]
  MIC: 8 µg/mL (≈ 23.7 µM)
[8]
  MIC: 32 µg/mL (≈ 94.9 µM)
[9]
  MIC: 16 µg/mL (≈ 47.4 µM)
[10]
  MIC: 8 µg/mL (≈ 23.7 µM)
[11]
  MIC: 8 µg/mL (≈ 23.7 µM)
[12]
  MIC: 8 µg/mL (≈ 23.7 µM)
[13]
  MIC: 8 µg/mL (≈ 23.7 µM)
[14]
  MIC: 8 µg/mL (≈ 23.7 µM)
[15]
  MIC: 16 µg/mL (≈ 47.4 µM)
[16]
  MIC: 32 µg/mL (≈ 94.9 µM)
[17]
  MIC: 16 µg/mL (≈ 47.4 µM)
[18]
  MIC: 16 µg/mL (≈ 47.4 µM)
[19]
  MIC: 8 µg/mL (≈ 23.7 µM)
[20]
  MIC: 8 µg/mL (≈ 23.7 µM)
[21]
  MIC: 16 µg/mL (≈ 47.4 µM)
[22]
  MIC: 32 µg/mL (≈ 94.9 µM)
[23]
  MIC: 32 µg/mL (≈ 94.9 µM)
[24]
  MIC: 32 µg/mL (≈ 94.9 µM)
[25]
  MIC: 8 µg/mL (≈ 23.7 µM)
[26]
  MIC: 8 µg/mL (≈ 23.7 µM)
[27]
  MIC: 8 µg/mL (≈ 23.7 µM)
[28]
  MIC: 8 µg/mL (≈ 23.7 µM)
[29]
  MIC: 16 µg/mL (≈ 47.4 µM)
[30]
  MIC: 8 µg/mL (≈ 23.7 µM)
[31]
  MIC: 8 µg/mL (≈ 23.7 µM)
[32]
  MIC: 32 µg/mL (≈ 94.9 µM)
[33]
  MIC: 8 µg/mL (≈ 23.7 µM)
[34]
  MIC: 8 µg/mL (≈ 23.7 µM)
[35]
  MIC: 8 µg/mL (≈ 23.7 µM)
[36]
  MIC: 8 µg/mL (≈ 23.7 µM)
[37]
  MIC: 16 µg/mL (≈ 47.4 µM)
[38]
  MIC: 16 µg/mL (≈ 47.4 µM)
[39]
  MIC: 8 µg/mL (≈ 23.7 µM)
[40]
  MIC: 16 µg/mL (≈ 47.4 µM)
[41]
  MIC: 16 µg/mL (≈ 47.4 µM)
[42]
  MIC: 8 µg/mL (≈ 23.7 µM)
[43]
  MIC: 32 µg/mL (≈ 94.9 µM)
[44]
  MIC: 16 µg/mL (≈ 47.4 µM)
[45]
  MIC: 16 µg/mL (≈ 47.4 µM)
[46]
  MIC: 16 µg/mL (≈ 47.4 µM)
[47]
  MIC: 16 µg/mL (≈ 47.4 µM)
[48]
  MIC: 16 µg/mL (≈ 47.4 µM)
[49]
  MIC: 16 µg/mL (≈ 47.4 µM)
[50]
  MIC: 16 µg/mL (≈ 47.4 µM)
[51]
  MIC: 8 µg/mL (≈ 23.7 µM)
[52]
  MIC: 16 µg/mL (≈ 47.4 µM)
[53]
  MIC: 8 µg/mL (≈ 23.7 µM)
[54]
  MIC: 16 µg/mL (≈ 47.4 µM)
[55]
  MIC: 16 µg/mL (≈ 47.4 µM)
[56]
  MIC: 16 µg/mL (≈ 47.4 µM)
[57]
  MIC: 16 µg/mL (≈ 47.4 µM)
[58]
  MIC: 8 µg/mL (≈ 23.7 µM)
[59]
  MIC: 8 µg/mL (≈ 23.7 µM)
[60]
  MIC: 16 µg/mL (≈ 47.4 µM)
[61]
  MIC: 8 µg/mL (≈ 23.7 µM)
[62]
  MIC: 16 µg/mL (≈ 47.4 µM)
[63]
  MIC: 16 µg/mL (≈ 47.4 µM)
